Measurements: US7803832B2, “N-(1-arylpyrazol-4L)sulfonamides and their use as parasiticides” (Pfizer Inc., priority 2004, dated 2010)

System: Ctenocephalides felis (cat flea)
Assay: flea membrane feed test
Conditions: in vitro membrane feed; adult fleas fed 2 hours on citrated dog blood containing compound, stored overnight, percentage of fleas killed; dose responses repeated n=5
Procedure: The flea membrane feed test is used to measure the biological activities of the compounds claimed. The assay involves in vitro testing against Ctenocephalides felis conducted according to the following general procedure.
Fleas are cultured in vitro using dog blood. 25-30 adult Ctenocephalides felis (cat flea) were collected and placed in a test chamber (50 ml polystyrene tube with fine nylon mesh sealing the end). Citrated dog blood was prepared by adding aqueous sodium citrate solution (10 ml, 20% w/v, 20 g sodium citrate in 100 ml water) to dog blood (250 ml). Test compounds were dissolved in dimethylsulfoxide to give a working stock solution of 4 mg/ml. The stock solution (12.5 μl) was added to citrated dog blood (5 ml) to give an initial test concentration of 10 μg/ml. For testing at 30 μg/ml, working stock solutions of 12 mg/ml were prepared.
Citrated dog blood containing the test compound (5 ml, 10 μg/ml) was placed into a plastic Petri dish lid, which was kept at 37° C. on a heated pad. Parafilm was stretched over the open top to form a tight membrane for the fleas to feed through. The test chamber containing the fleas was placed carefully onto the parafilm membrane and the fleas commenced feeding.
The fleas were allowed to feed for 2 hours and the test chambers were then removed and stored overnight at room temperature.
The fleas were observed and the percentage of fleas killed recorded. Compounds were initially tested at 10 μg/ml, wherefrom relevant dose responses (100, 30, 10, 3, 1, 0.3, 0.1 μg/ml) were conducted and repeated n=5. Data was plotted to generate ED80, ED90 & ED95 values.

| Compound | Flea feed ED80 results [µg/mL] |
| --- | --- |
| CS(=O)(=O)N(CC#N)c1c(C#N)nn(-c2c(Cl)cc(C(F)(F)F)cc2Cl)c1N [Example 5, N-{5-amino-3-cyano-1-[2,6-dichloro-4-(trifluoromethyl)phenyl]-1H-pyrazol-4-yl}-N-(cyanomethyl)methanesulfonamide] | 1 |
| CN(c1cn(-c2c(Cl)cc(C(F)(F)F)cc2Cl)nc1C#N)S(=O)(=O)C(F)(F)F [Example 27, N-{3-cyano-1-[2,6-dichloro-4-(trifluoromethyl)phenyl]-1H-pyrazol-4-yl}-1,1,1-trifluoro-N-methyl methanesulfonamide] | 0.1 |
| CS(=O)(=O)N(c1c(C#N)nn(-c2c(Cl)cc(C(F)(F)F)cc2Cl)c1N)S(=O)(=O)c1ccc(F)cc1F [Example 84, N-{5-amino-3-cyano-1-[2,6-dichloro-4-(trifluoromethyl)phenyl]-1H-pyrazol-4-yl}-2,4-difluoro-N-(methylsulfonyl)benzenesulfonamide] | 3 |
